Test results: patent publication US20260158009A1 (GENZYME CORPORATION, priority 2023, published 2026)

Legend:
[1] = target: T1, hRIPK1 (aa 1-375) fusion protein (Homo sapiens, UniProt Q13546); assay: ADP-Glo kinase assay: catalytic activity of RIPK1 (autophosphorylation, conversion of ATP to ADP); type: biochemical
T1 construct: hRIPK1 (aa 1-375) fusion protein
T1 sequence (Q13546 1-375): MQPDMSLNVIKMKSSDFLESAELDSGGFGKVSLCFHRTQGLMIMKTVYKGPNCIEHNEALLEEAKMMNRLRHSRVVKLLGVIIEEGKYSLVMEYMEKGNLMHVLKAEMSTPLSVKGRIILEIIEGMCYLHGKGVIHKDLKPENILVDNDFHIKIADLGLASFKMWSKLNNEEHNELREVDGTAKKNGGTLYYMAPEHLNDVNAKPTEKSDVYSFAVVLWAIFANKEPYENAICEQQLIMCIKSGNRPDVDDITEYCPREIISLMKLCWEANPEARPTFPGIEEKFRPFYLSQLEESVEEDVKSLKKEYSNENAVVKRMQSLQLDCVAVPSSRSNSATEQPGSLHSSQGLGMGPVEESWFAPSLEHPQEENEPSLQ
In short: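 hRIPK1 (aa 1-375) fusion protein (3.6 μg/ml final) was preincubated 30 min at rt with compound (33300-1.69 nM, 1% DMSO), then 50 μM ATP was added for 240 min at rt. ADP from autophosphorylation was measured by ADP-Glo luminescence and curves fitted by nonlinear regression.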

[2] = test system: U937 cells; assay: Cellular assay in U937 cells: activity of RIPK1 inhibitors on TNFα/zVAD.fmk-induced cell death (necroptosis), CellTiter 96 AQueous (MTS) readout; type: cell-based; settings: Homo sapiens, U-937
In short: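 Necroptosis was measured by viable-cell MTS reduction (4 h, absorbance 490 nm) after overnight (18–24 h) 37° C culture. Cell suspensions of U937 cells carried TNFα (100 ng/ml) plus zVAD.fmk (50 μM) before compound was added. A 10-point curve (10 μM–0.26 nM or 1 μM–0.07 nM) was run in duplicate, normalised to the control lacking TNFα/zVAD.fmk.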

IC50 [1]	Structure (SMILES)	IC50 [2]
46 nM	N#Cc1cncc([C@@H]2CCON2C(=O)[C@H]2CC[C@H](Cn3ccc4ncc(F)cc43)CC2)c1 [compound 123, trans-5-((S)-2-(4-((6-fluoro-1H-pyrrolo[3,2-b]pyridin-1-yl)methyl)cyclohexane-1-carbonyl)isoxazolidin-3-yl)nicotinonitrile]	12 nM
33 nM	Cc1ccc([C@@H]2CCON2C(=O)[C@H]2CC[C@H](Cc3cc(C)ncc3C)CC2)cn1 [compound 354, trans-[4-(2,5-Dimethyl-pyridin-4-ylmethyl)-cyclohexyl]-[(S)-3-(6-methyl-pyridin-3-yl)-isoxazolidin-2-yl]-methanone]	27 nM
29 nM	O=C1NCc2ccc(C[C@H]3CC[C@H](C(=O)N4OCC[C@H]4c4cnccn4)CC3)cc21 [compound 145, trans-6-[[4-[(3S)-3-pyrazin-2-ylisoxazolidine-2-carbonyl]cyclohexyl]methyl]isoindolin-1-one]	16 nM
35 nM	Cc1ccc([C@@H]2CCON2C(=O)[C@H]2CC[C@H](Cn3nc(C)cc3C)CC2)cc1 [compound 117, trans-(4-((3,5-dimethyl-1H-pyrazol-1-yl)methyl)cyclohexyl)((S)-3-(p-tolyl)isoxazolidin-2-yl)methanone]	54 nM
10 nM	Cc1cn2ncc(C[C@H]3CC[C@H](C(=O)N4OCC[C@H]4c4cccc(F)c4)CC3)cc2n1 [compound 323, [2-fluoro-4-[(3S)-2-[4-[(2-methylimidazo[1,2-b]pyridazin-7-yl)methyl]cyclohexanecarbonyl]isoxazolidin-3-yl]phenyl]]	6 nM
18 nM	COc1cncc([C@@H]2CCON2C(=O)[C@H]2CC[C@H](Cn3ccc4cc(C(N)=O)ccc43)CC2)n1 [compound 253, trans-1-[[4-[(3S)-3-(6-methoxypyrazin-2-yl)isoxazolidine-2-carbonyl]cyclohexyl]methyl]indole-5-carboxamide]	175 nM
95 nM	COc1cc(C[C@H]2CC[C@H](C(=O)N3OCC[C@H]3c3ccc(C)nc3)CC2)cn2nc(C)nc12 [compound 368, trans-[4-(8-Methoxy-2-methyl-[1,2,4]triazolo[1,5-a]pyridin-6-ylmethyl)-cyclohexyl]-[(S)-3-(6-methyl-pyridin-3-yl)-isoxazolidin-2-yl]-methanone]	123 nM
18 nM	N#Cc1cc(F)cc([C@@H]2CCON2C(=O)[C@H]2CC[C@H](Cc3cc(F)cc(CCO)c3)CC2)c1 [compound 282, trans-3-fluoro-5-[(3S)-2-[4-[[3-fluoro-5-(2-hydroxyethyl)phenyl]methyl]cyclohexanecarbonyl]isoxazolidin-3-yl]benzonitrile]	10 nM
15 nM	Cc1nc2c(C)cc(C[C@H]3CC[C@](C)(C(=O)N4OCC[C@H]4c4cnc(C)c(F)c4)CC3)cn2n1 [compound 403, trans-[4-[(2,8-dimethyl-[1,2,4]triazolo[1,5-a]pyridin-6-yl)methyl]-1-methylcyclohexyl]-[(3S)-3-(5-fluoro-6-methylpyridin-3-yl)-1,2-oxazolidin-2-yl]methanone]	2 nM
4 nM	CNC(=O)c1cc(F)cc(C[C@H]2CC[C@H](C(=O)N3OCC[C@H]3c3cc(F)cc(F)c3)CC2)c1 [compound 161, trans-3-[[4-[(3S)-3-(3,5-difluorophenyl)isoxazolidine-2-carbonyl]cyclohexyl]methyl]-5-fluoro-N-methyl-benzamide]	1 nM
114 nM	Cc1nc([C@@H]2CCON2C(=O)[C@H]2CC[C@H](Cn3cc4ccc(C(N)=O)cc4n3)CC2)cs1 [Compound 233, trans-2-[[4-[(3S)-3-(2-methylthiazol-4-yl)isoxazolidine-2-carbonyl]cyclohexyl]methyl]indazole-6-carboxamide]	384 nM
43 nM	Cc1ncc(C[C@H]2CC[C@H](C(=O)N3OCC[C@H]3c3cnc(C)c(F)c3)CC2)cn1 [compound 343, trans-[(3S)-3-(5-fluoro-6-methylpyridin-3-yl)-1,2-oxazolidin-2-yl]-[4-[(2-methylpyrimidin-5-yl)methyl]cyclohexyl]methanone]	21 nM
13 nM	Cc1ccc(CC23CCC(C(=O)N4OCC[C@H]4c4cc(F)cc(F)c4)(CC2)C3)cc1C(N)=O [compound 269, 5-[[4-[(3S)-3-(3,5-difluorophenyl)isoxazolidine-2-carbonyl]norbornan-1-yl]methyl]-2-methyl-benzamide]	28 nM
32 nM	Cc1nc2ccc(C[C@H]3CC[C@H](C(=O)N4OCC[C@H]4c4ccc(F)cc4)CC3)cn2n1 [compound 260, trans-[(3S)-3-(4-fluorophenyl)isoxazolidin-2-yl]-[4-[(2-methyl-[1,2,4]triazolo[1,5-a]pyridin-6-yl)methyl]cyclohexyl]methanone]	25 nM
7 nM	N#Cc1cc(F)cc([C@@H]2CCON2C(=O)[C@H]2CC[C@H](Cc3ccc(CCO)c(F)c3)CC2)c1 [compound 279, trans-3-fluoro-5-[(3S)-2-[4-[[3-fluoro-4-(2-hydroxyethyl)phenyl]methyl]cyclohexanecarbonyl]isoxazolidin-3-yl]benzonitrile]	9 nM
26 nM	N#Cc1ccc2nn(C[C@H]3CC[C@H](C(=O)N4OCC[C@H]4c4cc(F)cc(F)c4)CC3)cc2c1 [compound 58, trans-2-((4-((S)-3-(3,5-difluorophenyl)isoxazolidine-2-carbonyl)cyclohexyl)methyl)-2H-indazole-5-carbonitrile]	32 nM
829 nM	Cn1cncc1C[C@H]1CC[C@H](C(=O)N2OCC[C@H]2c2cncc(C#N)c2)CC1 [compound 168, trans-5-[(3S)-2-[4-[(3-methylimidazol-4-yl)methyl]cyclohexanecarbonyl]isoxazolidin-3-yl]pyridine-3-carbonitrile]	653 nM
12 nM	Cc1cn2nc(C[C@H]3CC[C@H](C(=O)N4OCC[C@H]4c4cc(F)cc(F)c4)CC3)cc(C)c2n1 [compound 291, trans-[(3S)-3-(3,5-difluorophenyl)isoxazolidin-2-yl]-[4-[(2,8-dimethylimidazo[1,2-b]pyridazin-6-yl)methyl]cyclohexyl]methanone]	1 nM
17 nM	N#Cc1cc(F)cc([C@@H]2CCON2C(=O)[C@H]2CC[C@H](Cn3ccc4cc(F)c(C(N)=O)cc43)CC2)c1 [compound 76, trans-1-((4-((S)-3-(3-cyano-5-fluorophenyl)isoxazolidine-2-carbonyl)cyclohexyl)methyl)-5-fluoro-1H-indole-6-carboxamide]	8 nM
45 nM	N#Cc1cc(F)cc([C@@H]2CCON2C(=O)[C@H]2CC[C@H](Cn3cnc4cc(C#N)ccc43)CC2)c1 [compound 5, trans-1-((4-((S)-3-(3-cyano-5-fluorophenyl)isoxazolidine-2-carbonyl)cyclohexyl)methyl)-1H-benzo[d]imidazole-5-carbonitrile]	244 nM
12 nM	Cc1nc2ccc(C[C@H]3CC[C@H](C(=O)N4OCC[C@H]4c4ccc(F)c(F)c4)CC3)nn2n1 [compound 310, trans-[(3S)-3-(3,4-difluorophenyl)isoxazolidin-2-yl]-[4-[(2-methyl-[1,2,4]triazolo[1,5-b]pyridazin-6-yl)methyl]cyclohexyl]methanone]	22 nM
41 nM	COc1cncc([C@@H]2CCON2C(=O)[C@H]2CC[C@H](Cn3ncc4cc(C#N)ccc43)CC2)n1 [compound 217, trans-1-[[4-[(3S)-3-(6-methoxypyrazin-2-yl)isoxazolidine-2-carbonyl]cyclohexyl]methyl]indazole-5-carbonitrile]	12 nM
29 nM	N#Cc1cncc([C@@H]2CCON2C(=O)[C@H]2CC[C@H](Cn3cc4ccc(C#N)cc4n3)CC2)c1 [compound 127, trans-2-((4-((S)-3-(5-cyanopyridin-3-yl)isoxazolidine-2-carbonyl)cyclohexyl)methyl)-2H-indazole-6-carbonitrile]	15 nM
23 nM	COc1cncc([C@@H]2CCON2C(=O)[C@H]2CC[C@H](Cn3ncc4ncc(C#N)cc43)CC2)n1 [compound 186, trans-1-[[4-[(3S)-3-(6-methoxypyrazin-2-yl)isoxazolidine-2-carbonyl]cyclohexyl]methyl]pyrazolo[4,3-b]pyridine-6-carbonitrile]	39 nM
75 nM	Cc1c(C#N)ncn1C[C@H]1CC[C@H](C(=O)N2OCC[C@H]2c2cc(F)cc(C#N)c2)CC1 [compound 90, trans-1-((4-((S)-3-(3-cyano-5-fluorophenyl)isoxazolidine-2-carbonyl)cyclohexyl)methyl)-5-methyl-1H-imidazole-4-carbonitrile]	147 nM
39 nM	N#Cc1cncc([C@@H]2CCON2C(=O)[C@H]2CC[C@H](Cn3cnc4cc(F)ccc43)CC2)c1 [compound 107, trans-5-((S)-2-(4-((5-fluoro-1H-benzo[d]imidazol-1-yl)methyl)cyclohexane-1-carbonyl)isoxazolidin-3-yl)nicotinonitrile]	108 nM
